Publication PMC3598812, “Evaluation of Anti-Hyperalgesic and Analgesic Effects of Two Benzodiazepines in Human Experimental Pain: A Randomized Placebo-Controlled Study” (PLoS ONE, 2013)
Read-outs that look alike come from different tables or passages of the source.

Legend:
[1] = trial protocol, cited from earlier work
[2] = test system: healthy male volunteers; assay: Psychomotor performance, digit symbol substitution test (DSST); details: for DSST score compared with tolterodine at 120 min: main analysis, pairwise comparison within the time-points; for DSST-score: single oral dose (clobazam 20 mg, clonazepam 1 mg, tolterodine 1 mg), mean (SD)
Experimental: The psychomotor performance was assessed by the digit symbol substitution test (DSST), a subscale of the Wechsler Adult Intelligence Scale. The DSST evaluates the ability to concentrate and modifications in processing information [23]. It is a two-minute paper-and-pencil test. The subject was asked to replace digits with corresponding symbols according to a code given on the same sheet of paper. The score consists in the total number and the correct number of symbols drawn.
Pressure pain, conditioned pain modulation (CPM), intramuscular electrical pain tests, cuff algometry and DSST were performed 120 min after drug intake.
After 15 min, the whole battery of tests was performed.

[3] = Pharmacokinetics of clobazam in plasma (LC-MS/MS); type: in vivo; details: human, po, 20 mg, clobazam 20 mg oral, mean (SD)
[4] = 120 min after drug administration
[5] = subgroup (n = 8) with peak plasma level below 180 minutes and at least 200 µg/ml

Structure (SMILES)	Time to maximum plasma concentration ([1]; after 10 mg in healthy volunteers) [h]	Time to maximum plasma concentration ([1]; after 20 mg in healthy volunteers) [h]	Time to maximum plasma concentration ([1]; general statement)	Bioavailability ([1]; drug background) [%]	Half life (t1/2) ([1]; drug background)	DSST score compared with tolterodine at 120 min [2]	DSST-score [2, 4]	DSST-score ([2]; after flumazenil 0.2 mg iv)	AUC ([3]; all volunteers (n = 16)) [ng·h/mL]	Cmax ([3]; all volunteers (n = 16)) [ng/mL]	Tmax ([3]; all volunteers (n = 16)) [h]	half-life ([3]; all volunteers (n = 16)) [h]	AUC [3, 5] [ng·h/mL]	Cmax [3, 5] [ng/mL]	Tmax [3, 5] [h]	half-life [3, 5] [h]	Oral bioavailability ([1]; ref Micromedex 2009) [%]	Psychomotor performance (DSST) at 120 minutes compared with the other two drugs ([2]; subgroup analysis (n = 8), pairwise multiple comparison)	Change of DSST score after flumazenil injection ([2]; subgroup analysis (n = 8), within drug)
CN1C(=O)CC(=O)N(c2ccccc2)c2cc(Cl)ccc21 [Clobazam]	1.3 ± 0.2	1.6	about 2 h	90	circa 20 h	not	74.9 (14.7)	81.1 (12.1)	5460	370	2.28	19	6160	470	1.64	17.5			
Cc1ccc(O)c([C@H](CCN(C(C)C)C(C)C)c2ccccc2)c1 [Tolterodine]																	77		
O=C1CN=C(c2ccccc2Cl)c2cc([N+](=O)[O-])ccc2N1 [Clonazepam]						significantly associated to a lower score	69.3 (15.8)	79.1 (14.5)										lower psychomotor performance	significantly increased
